This passage reports TGI and GI50 results from PubChem BioAssay (NCI).

What all share (assay): NCI anticancer screen, dose series, 48 h
In assay [1] the test system is DU-145 prostate.
Assay [2] relates to HS 578T breast.
The test system of assay [3] is MALME-3M melanoma.
Assay [4] deals with MCF7 breast.
Assay [5] deals with MDA-MB-435.
Assay [6] relates to MOLT-4 leukemia.
Assay [7] deals with RPMI-8226 leukemia.
The test system of assay [8] is RXF 393 renal.
Assay [9] deals with SK-MEL-28 melanoma.
The test system of assay [10] is SW-620 colon.

Each structure is given as a SMILES string.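 Protocol summary: plate cells (96-well), add compound at 5 concentrations, incubate 48 h, interpolate endpoints linearly. GI50 marks 50% less growth. At the TGI there is no net growth.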

Take `Cc1ccc(-c2cn3c(nc4ccccc43)c(C)n2)cc1`: the TGI in assay [1] was above 100 µM; in assay [2], above 100 µM; in assay [3], above 67.8 µM; in assay [4], above 100 µM; in assay [5], 97 µM; in [6] it was above 100 µM. The TGI in assay [7] was above 100 µM; in assay [8], above 64.4 µM; in assay [9] it was above 100 µM; in assay [10], above 100 µM.

Consider `CC(C)(C)OC(=O)N1CC(COS(C)(=O)=O)c2ccc(O)cc21` (stereo not given), for which the TGI in [1] came to 3.53 µM; in assay [2], 5.75 µM; in assay [3], 2.86 µM; in assay [4] it was 7.49 µM; in [5], 3.21 µM; in assay [6] it was 3.92 µM. Moreover, the TGI in [7] worked out at 3.96 µM; in assay [8] it was 0.924 µM; in assay [9], 3.8 µM; in assay [10] it was 9.57 µM.

Consider `O=C1c2c(ccc3c2CCCC3)CC12Cc1ccccc1C2`, for which the TGI in [1] was above 100 µM; in assay [2], above 100 µM; in assay [3] it was 34.9 µM; in [4] it was above 76.6 µM; in [5], above 100 µM; in [6] it was above 35.4 µM. In addition, the TGI in assay [7] is 45.5 µM; in assay [8], 46.2 µM; in [9], above 80.4 µM; in assay [10], above 100 µM.

Take `CC(C)Oc1c(O)c2c3c(oc(=O)n3C=CC2c2ccccc2F)c1OC(C)C` (stereo not given): the TGI in [1] is above 100 µM; in assay [2], above 100 µM; in [3], above 100 µM; in assay [4] it was above 100 µM; in [5], 70 µM; in [6], 59.3 µM. Moreover, the TGI in assay [7] was 51.9 µM; in [8], 81.5 µM; in assay [9], above 100 µM; in [10] it was above 100 µM.

As for `O=C(C(Cl)=C(Nc1ccccc1)Nc1ccccc1)C(Cl)Cl`, the TGI in assay [1] was above 100 µM; in [2], above 100 µM; in assay [3] it was 45 µM; in assay [4] it was 62.5 µM; in assay [5], 39.8 µM; in assay [6], 45.1 µM. The TGI in [7] was 78.9 µM; in assay [8], 56.1 µM; in assay [9], above 100 µM; in assay [10], 57 µM.

Turning to `COC(=O)[C@H]1ON2O[C@H](OC3CCCC[C@@H]3c3ccccc3)C[C@@H]3CC[C@H]1[C@@]32C` (stereo not given in full), the TGI in assay [1], in assay [2], in assay [3], in [4], in assay [5] and in assay [6] was above 100 µM throughout. Also, the TGI in [7], in assay [8], in assay [9] and in assay [10] was above 100 µM throughout.

Consider `O=C1N[C@@H](c2c[nH]c3ccc(Br)cc23)C(=O)N[C@H]1c1c[nH]c2ccc(Br)cc12`, for which the TGI in assay [1] was 27.3 µM; in assay [2] it was 34.3 µM; in assay [3] it was 28.8 µM; in assay [4], 35.2 µM; in assay [5], 16.8 µM; in [6], 20.1 µM. In addition, the TGI worked out at 38.2 µM in assay [7], 43.4 µM in [8], 28.5 µM in assay [9] and 26.2 µM in assay [10].

Take `COC[C@@H](N=Cc1ccc(OC)cc1)C(C)C`: the TGI in assay [1], in [2], in [3], in [4], in [5] and in [6] was above 100 µM in each case. Moreover, the TGI in [7], in assay [8], in assay [9] and in assay [10] was above 100 µM each time.

Turning to `N#C/C(=C/NC(=S)Nc1ccc(S(N)(=O)=O)cc1)C(N)=O`, the TGI in assay [1], in assay [2], in [3], in assay [4], in assay [5] and in [6] was above 100 µM throughout. For the same compound, the TGI in assay [7], in [8], in assay [9] and in assay [10] was above 100 µM in each case.

`O=C(O)CCCCCNC(=O)CCC(CN(CC(=O)OCc1ccccc1)CC(=O)OCc1ccccc1)N(CC(=O)OCc1ccccc1)CC(=O)OCc1ccccc1` (stereo not given): the TGI was found to be 33.7 µM in [1]; 41.9 µM in [2]; 39.5 µM in assay [3]; 36.2 µM in [4]; 35.4 µM in assay [5]; 37.2 µM in [6]. Besides, the TGI in [7] stood at 31.9 µM; in assay [8], 28.9 µM; in assay [9], 33.7 µM; in assay [10], 45.3 µM.

For `C[N+]12C=CC=C1C(N1CCCC1)c1sc(-c3ccc(Cl)cc3)cc12` (stereo not given), the TGI in assay [1] was determined as 32.6 µM; in assay [2], 50.9 µM; in [3] it was 31.1 µM; in assay [4] it was 28.3 µM; in assay [5], 29.1 µM; in assay [6], 53.5 µM. The TGI in [7] stood at 57.7 µM; in [8], 31.9 µM; in assay [9], 31.6 µM; in assay [10] it was 29.9 µM.

Take `CN(C)CCCn1c2c(c3ccncc3c1=O)C(=O)c1ccccc1-2`: the GI50 in assay [1] was 0.988 µM; in assay [2], 1.74 µM; in assay [3], 0.978 µM; in assay [4], 0.333 µM; in assay [5], 1.55 µM; in [6], 0.324 µM. For the same compound, the GI50 was 1.72 µM in assay [7], 1.14 µM in [8], 1.72 µM in assay [9] and 0.41 µM in assay [10]. Further, the TGI in [1] worked out at 10.6 µM; in [2], 14.3 µM; in [3], 2.5 µM; in [4] it was 14 µM; in assay [5] it was 4.15 µM; in assay [7], 7.62 µM. Also, the TGI in assay [8] came to 3.86 µM; in assay [9] it was 4.7 µM; in [10], 13.1 µM.

For `O=C(C(=O)n1ccc2ccccc21)c1c[nH]c2ccccc12`, the TGI in assay [1], in assay [2], in assay [3], in assay [4], in assay [5] and in assay [6] was above 10 µM throughout. In addition, the TGI in assay [7], in [8], in assay [9] and in assay [10] was above 10 µM each time.

As to `Nc1c2ccccc2nc2ccc(C(=O)Nc3ccc(S(N)(=O)=O)cc3)cc12`, the TGI in [1], in [2], in assay [3], in assay [4], in assay [5] and in [6] was above 100 µM in each case. The TGI in assay [7], in assay [8], in [9] and in assay [10] was above 100 µM in each case.

Consider `CC(=O)CC(=O)Nn1c(-c2cccs2)nc2ccc(I)cc2c1=O`, for which the TGI in assay [1] is above 96.6 µM; in assay [2] it was 71.3 µM; in assay [3], above 93.2 µM; in assay [4], above 100 µM; in [5], above 100 µM; in [6], above 100 µM. For the same compound, the TGI in assay [7], in assay [8], in assay [9] and in assay [10] was above 100 µM in each case. Besides, the GI50 in assay [2] was 18.9 µM.

As for `CCO/C=N/C1=C(C#N)C(c2ccc(OC)c(OC)c2)c2c(-c3ccccc3)nn(-c3ccccc3)c2O1` (stereo not given), the TGI in [1] was 28.7 µM; in [2], above 100 µM; in assay [3], 51.2 µM; in assay [4] it was 53.1 µM; in [5] it was 33.1 µM; in assay [6], 38.4 µM. Besides, the TGI in [7] was above 100 µM; in assay [8] it was 29.8 µM; in [9], 29.4 µM; in [10], 29.2 µM.

With `Fc1ccccc1N=c1oc2ccc(Br)cc2cc1-c1nc2ccccc2[nH]1`, the TGI is above 42.5 µM in [1]; 13.4 µM in assay [2]; 14.9 µM in [3]; above 100 µM in assay [4]; above 64.6 µM in assay [5]; above 100 µM in assay [6]. Moreover, the TGI is above 85.6 µM in [7], 21.8 µM in assay [8], above 76.2 µM in assay [9] and above 100 µM in assay [10].

Take `COc1cccc(C(=O)C(O)c2cccc(OC)c2OC)c1OC` (stereo not given): the TGI in assay [1], in assay [2], in assay [3], in assay [4], in assay [5] and in assay [6] was above 100 µM each time. In addition, the TGI in assay [7], in assay [8], in [9] and in assay [10] was above 100 µM each time.
